Results on 16 compounds are retold here after PubChem BioAssay (NCI).

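Growth conditions: 96-well plates. Treatment: test compound, 48 hours, 5 concentrations. Analysis: linear interpolation between bracketing concentrations; unreached endpoints set to highest concentration. GI50 is the concentration that inhibits growth by half. TGI denotes the concentration required for complete inhibition of growth.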

What all share (assay): growth of human tumour cells (NCI), 48 h
For assay [1], the system named is HCC-2998 colon.
In assay [2] the test system is HS 578T breast.
Assay [3] concerns LOX IMVI melanoma.
Assay [4] deals with NCI-H23 lung.
Assay [5] concerns NCI/ADR-RES ovarian.
Assay [6] has as its system PC-3 prostate.
The test system of assay [7] is SF-295 CNS.
Assay [8] relates to SNB-75 CNS.
The subject of assay [9] is TK-10 renal.
Assay [10] concerns CCRF-CEM leukemia.

Turning to `Cc1cc2ccccc2c[n+]1CC(O)C[n+]1cc2ccccc2cc1C`, the TGI in assay [1], in assay [2], in assay [3], in assay [4], in assay [5] and in [6] was over 100 µM in each case. The TGI in [7], in assay [8] and in [9] was over 100 µM throughout.

Consider `COC(=O)C(/C(=N/NC(=O)c1ccncc1)C(=O)Nc1ccccc1OC)c1nc2ccc(Cl)cc2[nH]c1=O` (stereo not drawn), for which the TGI in assay [2], in assay [3], in assay [4], in assay [5], in assay [6] and in [7] was over 100 µM throughout. The TGI in [8] and in assay [9] was over 100 µM throughout.

On to `O=[N+]([O-])c1cccc([N+](=O)[O-])c1S(=O)(=O)c1ccccc1`, for which the TGI is 43.9 µM in assay [2]; 3.7 µM in assay [3]; 50.7 µM in [4]; 31.4 µM in [5]; 32.3 µM in assay [6]; 31.8 µM in assay [7]. In [9], this compound returned a TGI of 30.2 µM.

As for `Cc1ccc2nc3c(C)c(Cl)c(=O)cc-3sc2c1`, the TGI in assay [10] was 56.8 µM; in [1] it was over 100 µM; in assay [2], 71.7 µM; in assay [3], 33.6 µM; in assay [4] it was 34.3 µM; in assay [6] it was over 100 µM. The figures for the TGI in [7], in assay [8] and in assay [9] were 81.3 µM, 56.3 µM and over 100 µM, respectively.

With `c1ccc(CCN2CCCCCC2)nc1`, the TGI in assay [10], in [2], in [3], in assay [4], in assay [5] and in assay [6] was over 100 µM in each case. Also, the TGI in assay [7] and in assay [9] was over 100 µM each time.

As to `O=C1NC(=S)N/C1=C/c1ccccc1O`, the TGI in [10], in [1], in [2], in [3], in assay [4] and in assay [5] was over 100 µM each time. The TGI in [6], in assay [7] and in assay [9] was over 100 µM each time.

In the case of `CN(CCc1ccc(Cl)c(Cl)c1)[C@H]1CCCC[C@H]1N1CCCC1`, the TGI in assay [1], in [2], in [3], in assay [4], in assay [5] and in assay [6] was over 100 µM throughout. Besides, the TGI in [7] and in assay [9] was over 100 µM each time.

With `Clc1nc(-[n+]2ccc(-c3ccncc3)cc2)nc(Nc2ccccc2)c1Cl`, the TGI in assay [10] was 90.2 µM; in assay [1] it was over 100 µM; in assay [2] it was over 100 µM; in [3], over 100 µM; in [4], over 100 µM; in assay [5], over 100 µM. The TGI in [6] and in assay [9] was over 100 µM throughout.

On to `Cc1cc(Cc2c(F)c(F)c(Cc3cc(C)no3)c(F)c2F)on1`, for which the TGI in [10], in assay [2], in assay [3], in assay [4], in assay [5] and in assay [6] was over 100 µM throughout. In addition, the TGI in [7] is over 100 µM; in [8], 76.7 µM; in [9] it was over 100 µM.

Consider `COc1ccc(/C=C/c2cc(O)cc(OC)c2)cc1`, for which the TGI in assay [2], in assay [4], in assay [5], in [6], in assay [7] and in [8] was over 100 µM each time. This compound also gave a TGI in [9] of over 100 µM.

In the case of `COC(=O)C1=C(O)C(C(=O)OC)[C@@]2(O)[C@@H](C(=O)OC)C(c3ccc(OC(=O)/C(=C/c4ccc(Cl)cc4)c4ccc(Cl)cc4)cc3)C[C@@H]1[C@@H]2C(=O)OC` (stereo partly drawn), the TGI in [10] was over 100 µM; in assay [2], over 100 µM; in assay [3], 38.1 µM; in [4], over 100 µM; in assay [5], over 100 µM; in [6], over 100 µM. Further, the TGI was over 100 µM in assay [7], over 100 µM in assay [8] and 73.7 µM in assay [9].

For the compound `O=C(/C=C/c1ccc(-c2ccccc2[N+](=O)[O-])o1)NCc1ccc(C(=O)NCCc2ccccc2)cc1`, the TGI in [1], in assay [2], in [3], in [4], in [5] and in assay [6] was over 100 µM each time. In addition, the TGI in [7], in assay [8] and in [9] was over 100 µM throughout.

With `COc1cc2cc(C(=O)N3CC(CCl)c4c3cc(N)c3ccccc43)[nH]c2cc1OCCN(C)C` (stereo not drawn), the TGI in [10] was under 0.005 µM; in assay [1], 0.535 µM; in [2], 0.125 µM; in assay [4] it was 0.00833 µM; in assay [5], 0.175 µM; in assay [6] it was 5.5 µM. This compound also gave a TGI in assay [9] of 8.67 µM.

In the case of `CN(C)C[C@H]1CC[C@@H](CN(C)C)C1=O`, the GI50 in [10] is 1.23 µM. Moreover, the TGI in [10] was 5.02 µM; in assay [1], over 37.5 µM; in [2], 36.6 µM; in assay [3], 14.2 µM; in assay [4], 18.4 µM; in assay [6] it was 15.7 µM. The TGI in [7] was over 50 µM; in [8], over 28.7 µM; in assay [9], 15 µM.

Take `CC1(C)O[C@@H](CO)[C@H]([C@@]23OC[C@H]4OC(C)(C)OC4[C@@H]2OC(C)(C)O3)O1` (stereo partly drawn): the TGI in assay [1], in assay [2], in [3], in assay [4], in assay [5] and in [6] was over 100 µM throughout. In addition, the TGI in assay [7] and in [8] was over 100 µM throughout.

Consider `Cc1cccc(C(C)(C)C)c1NC(=O)/C(Cc1nc2ccc([N+](=O)[O-])cc2[nH]c1=O)=N/NC(=O)C[N+](C)(C)C`, for which the TGI in assay [1], in assay [2], in assay [3], in [4], in [5] and in assay [6] was over 100 µM throughout. Besides, the TGI in [7] and in assay [8] was over 100 µM in each case.
